Read-outs that look alike come from different tables or passages of the source.
Legend:
WSU-DLCL2 cells = experiment: Calcein AM proliferation assay, WSU-DLCL2 cells; assay type: cell-based, human; conditions: read-out: WSU-DLCL2 proliferation IC50
Experimental: (§1) By observing under a microscope, it was confirmed that the cells are in good condition. The cells were transferred to a 15 mL centrifuge tube, which was centrifuged at 1000 rpm for 5 minutes.
Gradient dilutions of the compounds in DMSO were performed, and a compound plate with a final concentration of 500-fold was prepared. 1.2 μL of 500× compound was pipetted, transferred to 200 μL medium, and pipetted to mix well to obtain a 3× compound intermediate plate. 50 μL 3× compound is pipetted and added to the cell plate according to the set arrangement.
The cells of the above concentration were inoculated in 96-well plates, 100 μL/well (the number of cells in each well is 10,000). The cell plate was placed in a carbon dioxide incubator for 4 days. The cell plate was taken out. After mixed uniformly, a certain volume of cell suspension was drawn, and stained with Calcein AM. The number of cells in each well was counted with Acumen. According to the number of detected cells, 10,000 cells were re-inoculated in 96-well plates. As above, the compound was added. After placed in a carbon dioxide incubator for 3 days (day 7). The cell plate was taken out again. After mixed uniformly, a certain volume of cell suspension was drawn, stained with Calcein AM. The number of cells in each well was counted with Acumen. The cells were cultured for another 4 days (day 11), and the cell plate was taken out for the third time. After mixed uniformly, a certain volume of cell suspension was drawn, and stained with Calcein AM. The number of cells in each well was counted with Acumen. According to the number of detected cells, 10,000 cells were re-inoculated in 96-well plates. As above, the compound was added. […] After Calcein AM staining, the number of the cells was counted to obtain the final count result. The data of day 14 was processed to obtain the corresponding half-inhibitory concentration (IC50).
Using GraphPad Prism 5 software, a non-linear regression model was used to draw the S-type dose-survival rate curve and to calculate the IC50 value.

Pfeiffer cells = experiment: Calcein AM proliferation assay, Pfeiffer cells; assay type: cell-based, human; conditions: read-out: Pfeiffer proliferation IC50
[1] = Pharmacokinetics experiment in rats; assay type: in vivo; conditions: rat, plasma, male SD rats; for bioavailability: oral 20 mg/kg vs intravenous 4 mg/kg, read-out: Bioavailability (F %); for AUC: read-out: Area under the curve (AUC); for half-life: read-out: Half life (T1/2) (converted); for Cmax: read-out: Blood drug level (Cmax)
Experimental: Male SD rats weighing 200-300 g and 8 weeks old were used as experimental animals. […] The pharmacokinetic behavior of the compound of the present invention in rats was studied, and the pharmacokinetic characteristics thereof were evaluated.
A certain amount of the compound was weighed, dissolved in 0.10% tween for vortex and ultrasound, and then 0.5% sodium carboxymethyl cellulose (CMC-Na) solution was added to prepare a uniform solution.
The above-mentioned compounds were applied intravenously and orally to rats at a dose of 4 mg/kg and a dose of 20 mg/kg, respectively. At 0.083 h, 0.25 h, 0.5 h, 1.0 h, 2.0 h, 4.0 h, 6.0 h, 8.0 h, 12.0 h, and 24.0 h after application, 0.2 mL of blood was collected from the orbit, and placed in an anticoagulant tube, which was centrifuged at 6000 rpm for 10 minutes at 4° C. The plasma was separated and stored at −80° C.

Karpas 422 cells = experiment: Calcein AM proliferation assay, Karpas 422 cells; assay type: cell-based, human; conditions: read-out: Karpas422 proliferation IC50
[2] = system: WSU-DLCL2 cell mouse xenograft tumor model; experiment: Pharmacodynamic experiment in WSU-DLCL2 mouse xenograft tumor model; assay type: in vivo; conditions: CB17/SCID mice
Experimental: A certain amount of the compound was weighed, dissolved in 0.1% tween for vortex and ultrasound, and then 0.5% sodium carboxymethyl cellulose (CMC-Na) solution was added to prepare a uniform solution.
as §1

Mutant EZH2 (Y641F) = target: T1, Mutant EZH2 (Y641F) (Homo sapiens, UniProt Q15910, Y641F); experiment: AlphaLISA assay on mutant PRC2 complex, EZH2 Y641F; assay type: biochemical
T1 construct: purchased BPS 51004
T1 sequence (Q15910 whole entry Y641F): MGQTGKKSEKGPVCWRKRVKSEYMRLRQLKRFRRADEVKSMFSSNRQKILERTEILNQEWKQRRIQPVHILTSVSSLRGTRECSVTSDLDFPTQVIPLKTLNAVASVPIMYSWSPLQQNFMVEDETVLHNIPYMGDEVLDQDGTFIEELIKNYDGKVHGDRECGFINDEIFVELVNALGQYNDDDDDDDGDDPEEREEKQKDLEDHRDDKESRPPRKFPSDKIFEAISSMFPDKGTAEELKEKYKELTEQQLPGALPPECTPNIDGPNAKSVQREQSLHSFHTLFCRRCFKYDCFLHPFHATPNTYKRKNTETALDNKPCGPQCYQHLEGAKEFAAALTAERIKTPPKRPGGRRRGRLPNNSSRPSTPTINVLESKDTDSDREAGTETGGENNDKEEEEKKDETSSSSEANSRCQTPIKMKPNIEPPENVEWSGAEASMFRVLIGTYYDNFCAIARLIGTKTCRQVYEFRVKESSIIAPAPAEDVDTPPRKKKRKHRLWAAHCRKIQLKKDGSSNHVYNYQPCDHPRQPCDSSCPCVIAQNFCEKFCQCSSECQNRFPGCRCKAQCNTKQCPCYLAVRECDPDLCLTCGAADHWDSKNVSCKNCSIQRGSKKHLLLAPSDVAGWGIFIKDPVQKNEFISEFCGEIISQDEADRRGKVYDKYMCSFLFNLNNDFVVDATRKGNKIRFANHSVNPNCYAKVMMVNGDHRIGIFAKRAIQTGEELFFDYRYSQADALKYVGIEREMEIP
T1 sequence (O75530 whole entry partner): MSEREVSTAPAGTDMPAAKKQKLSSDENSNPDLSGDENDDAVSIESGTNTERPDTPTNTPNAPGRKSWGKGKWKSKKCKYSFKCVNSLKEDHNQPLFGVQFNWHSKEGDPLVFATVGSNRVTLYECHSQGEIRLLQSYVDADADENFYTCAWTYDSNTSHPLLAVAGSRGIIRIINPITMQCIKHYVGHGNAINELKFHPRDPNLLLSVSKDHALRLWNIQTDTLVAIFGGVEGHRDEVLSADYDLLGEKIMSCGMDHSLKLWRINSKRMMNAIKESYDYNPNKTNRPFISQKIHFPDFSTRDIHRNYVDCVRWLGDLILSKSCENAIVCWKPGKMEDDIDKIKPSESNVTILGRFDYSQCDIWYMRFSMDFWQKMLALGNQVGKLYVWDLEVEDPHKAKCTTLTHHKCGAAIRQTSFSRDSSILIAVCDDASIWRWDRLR
T1 sequence (Q15022 whole entry partner): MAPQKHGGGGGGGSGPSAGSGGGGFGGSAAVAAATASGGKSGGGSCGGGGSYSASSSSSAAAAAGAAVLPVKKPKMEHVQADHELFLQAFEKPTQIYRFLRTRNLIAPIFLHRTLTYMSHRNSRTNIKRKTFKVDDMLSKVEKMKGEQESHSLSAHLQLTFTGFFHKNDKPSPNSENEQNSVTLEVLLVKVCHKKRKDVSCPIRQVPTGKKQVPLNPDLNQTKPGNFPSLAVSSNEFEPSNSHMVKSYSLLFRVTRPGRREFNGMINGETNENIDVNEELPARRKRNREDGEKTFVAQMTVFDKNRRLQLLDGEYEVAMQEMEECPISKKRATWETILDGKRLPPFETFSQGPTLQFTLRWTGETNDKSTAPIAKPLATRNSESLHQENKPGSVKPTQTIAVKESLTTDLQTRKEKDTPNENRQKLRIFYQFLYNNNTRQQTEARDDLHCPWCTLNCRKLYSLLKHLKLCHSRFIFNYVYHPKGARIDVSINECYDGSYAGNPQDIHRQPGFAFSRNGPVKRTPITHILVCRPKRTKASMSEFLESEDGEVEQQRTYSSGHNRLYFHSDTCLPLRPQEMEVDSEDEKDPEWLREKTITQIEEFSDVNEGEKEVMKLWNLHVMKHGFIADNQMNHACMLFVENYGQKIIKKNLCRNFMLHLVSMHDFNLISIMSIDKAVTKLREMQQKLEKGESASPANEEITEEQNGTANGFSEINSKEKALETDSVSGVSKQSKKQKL
T1 sequence (Q09028 whole entry partner): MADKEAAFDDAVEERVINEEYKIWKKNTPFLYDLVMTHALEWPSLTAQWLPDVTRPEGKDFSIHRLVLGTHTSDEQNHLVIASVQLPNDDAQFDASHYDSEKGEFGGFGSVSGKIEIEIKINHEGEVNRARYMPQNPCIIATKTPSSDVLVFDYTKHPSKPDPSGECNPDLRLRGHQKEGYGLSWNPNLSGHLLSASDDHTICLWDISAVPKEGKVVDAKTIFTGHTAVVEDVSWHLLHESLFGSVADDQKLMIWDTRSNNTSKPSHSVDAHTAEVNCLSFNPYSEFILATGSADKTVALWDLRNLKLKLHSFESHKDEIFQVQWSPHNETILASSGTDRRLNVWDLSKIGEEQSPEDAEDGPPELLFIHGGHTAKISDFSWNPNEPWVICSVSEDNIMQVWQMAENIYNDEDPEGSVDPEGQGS
T1 sequence (Q6ZN18 whole entry partner): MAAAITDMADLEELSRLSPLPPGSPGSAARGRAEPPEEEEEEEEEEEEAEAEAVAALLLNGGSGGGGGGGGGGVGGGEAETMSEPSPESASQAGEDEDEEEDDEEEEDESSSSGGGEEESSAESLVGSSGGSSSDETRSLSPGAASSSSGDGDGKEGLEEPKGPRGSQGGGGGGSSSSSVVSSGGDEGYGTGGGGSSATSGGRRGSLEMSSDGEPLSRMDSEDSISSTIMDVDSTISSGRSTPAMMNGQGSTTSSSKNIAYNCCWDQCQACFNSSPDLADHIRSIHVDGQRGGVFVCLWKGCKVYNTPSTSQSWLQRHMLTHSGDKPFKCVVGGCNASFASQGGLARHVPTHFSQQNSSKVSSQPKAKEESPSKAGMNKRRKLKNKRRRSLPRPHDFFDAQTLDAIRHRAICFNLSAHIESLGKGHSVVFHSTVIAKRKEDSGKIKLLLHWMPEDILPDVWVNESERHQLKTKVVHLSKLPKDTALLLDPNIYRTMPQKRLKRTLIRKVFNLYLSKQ
Experimental: Detection Method: AlphaLISA
(§2) Finally, 15 μl detection solution mixture was added under low light, and incubated at room temperature for 60 minutes, and read the value.

Mutant EZH2 (A677G) = target: T2, Mutant EZH2 (A677G) (Homo sapiens, UniProt Q15910, A677G); experiment: AlphaLISA assay on mutant PRC2 complex, EZH2 A677G; assay type: biochemical
T2 construct: purchased BPS 51004
T2 sequence (Q15910 whole entry A677G): as the sequence (Q15910 whole entry Y641F) above, with F641Y, A677G counted along it
T2 sequence (O75530 whole entry partner): as the sequence (O75530 whole entry partner) above
T2 sequence (Q15022 whole entry partner): as the sequence (Q15022 whole entry partner) above
T2 sequence (Q09028 whole entry partner): as the sequence (Q09028 whole entry partner) above
T2 sequence (Q6ZN18 whole entry partner): as the sequence (Q6ZN18 whole entry partner) above
Experimental: Detection Method: AlphaLISA
as §2

Mutant EZH2 (Y641N) = target: T3, Mutant EZH2 (Y641N) (Homo sapiens, UniProt Q15910, Y641N); experiment: AlphaLISA assay on mutant PRC2 complex, EZH2 Y641N; assay type: biochemical
T3 construct: purchased BPS 51004
T3 sequence (Q15910 whole entry Y641N): as the sequence (Q15910 whole entry Y641F) above, with F641N counted along it
T3 sequence (O75530 whole entry partner): as the sequence (O75530 whole entry partner) above
T3 sequence (Q15022 whole entry partner): as the sequence (Q15022 whole entry partner) above
T3 sequence (Q09028 whole entry partner): as the sequence (Q09028 whole entry partner) above
T3 sequence (Q6ZN18 whole entry partner): as the sequence (Q6ZN18 whole entry partner) above
Experimental: Detection Method: AlphaLISA
as §2

wild-type EZH2 = wild-type EZH2 (Homo sapiens, UniProt Q15910); experiment: Radiometric assay of activity on wild-type PRC2 EZH2
Sequence of wild-type EZH2 (Q15910 whole entry): as the sequence (Q15910 whole entry Y641F) above, with F641Y counted along it
Sequence of wild-type EZH2 (O75530 whole entry partner): as the sequence (O75530 whole entry partner) above
Sequence of wild-type EZH2 (Q15022 whole entry partner): as the sequence (Q15022 whole entry partner) above
Sequence of wild-type EZH2 (Q09028 whole entry partner): as the sequence (Q09028 whole entry partner) above
Experimental: 10 microliters (μL) of the compound of the test example and wild-type EZH2 were added to each well. After being incubated at room temperature for 15 minutes, peptides and [3H]-labeled methyl donor S-adenosylmethionine (SAM) were added. After reacting at room temperature for 1 hour (h), cold SAM was added to terminate the reaction. 25 μl reaction solution was transferred to the scintillation plate. After incubating for 1 hour (h) at room temperature, the plate was washed three times with deionized water and 0.1% Tween 20. The value was read with a PerkinElmer liquid scintillation/luminescence counter, and the half inhibitory concentration (IC50) of the compound was calculated with the Prism 5 software (GraphPad Prism 5).

[3] = 150 mg/kg gastric irrigation, 21 days
[4] = Homo sapiens, WSUDLCL2, day 14 data, Calcein AM staining
[5] = Homo sapiens, Pfeiffer, day 14 data, Calcein AM staining
[6] = Homo sapiens, KARPAS-422, day 14 data, Calcein AM staining
[7] = day 14 data, Calcein AM staining

| bioavailability [1] | AUC ([1]; intravenous dosing 4 mg/kg) | half-life ([1]; intravenous dosing 4 mg/kg) | AUC ([1]; oral dosing 20 mg/kg) | Cmax ([1]; oral dosing 20 mg/kg) | IC50 (Mutant EZH2 (Y641F)) | IC50 (Mutant EZH2 (A677G)) | IC50 (Karpas 422 cells; [6]) | IC50 (Mutant EZH2 (Y641N)) | IC50 (wild-type EZH2) | IC50 (Karpas 422 cells; [7]) | SMILES | IC50 (WSU-DLCL2 cells; Homo sapiens, WSUDLCL2, […]) | IC50 (Pfeiffer cells; Homo sapiens, Pfeiffer, […]) | IC50 (Karpas 422 cells; Homo sapiens, KARPAS-422, […]) | tumor growth inhibition [2, 3] | IC50 (WSU-DLCL2 cells; [4]) | IC50 (Pfeiffer cells; [5]) | IC50 (WSU-DLCL2 cells; [7]) | IC50 (Pfeiffer cells; [7]) | tumor growth inhibition ([2]; 50 mg/kg abdominal, once a day for 21 days) |
| --- | --- | --- | --- | --- | --- | --- | --- | --- | --- | --- | --- | --- | --- | --- | --- | --- | --- | --- | --- | --- |
| 34.5% | 893 ng·h/mL | 1.42 h | 1540 ng·h/mL | 500 ng/mL | 0.78 nM | 0.24 nM | 2.15 nM | 0.1 nM |  |  | CCN(c1cc(N2Cc3ccccc3C2)cc(C(=O)NCc2c(C)cc(C)[nH]c2=O)c1C)C1CCOCC1 [Compound 15, N-4,6-((dimethyl-2-oxo-1,2-dihydropyridin-3-yl)methyl)-3-(ethyl (tetrahydro-2H-pyran-4-yl)amino)-5-(5-isoindolin-2-yl)-2-methylbenzamide] |  |  |  |  | 2.46 nM | 0.93 nM |  |  |  |
| 24.4% | 975 ng·h/mL | 1.87 h | 1190 ng·h/mL | 433 ng/mL | 0.82 nM | 0.74 nM | 3.34 nM | 0.61 nM | 0.95 nM |  | CCN(c1cc(N2CCc3ccccc3C2)cc(C(=O)NCc2c(C)cc(C)[nH]c2=O)c1C)C1CCOCC1 [Compound 16, 5-(3,4-dihydroisoquinoline-2(1H)-yl)-N-((4,6-dimethyl-2-oxo-1,2-dihydropyridin-3-yl)methyl)-3-(ethyl(tetrahydro-2H-pyran-4-yl)amino)-2-methylbenzamide] |  |  |  |  | 5.12 nM | 1.87 nM |  |  |  |
| 34.3% | 969 ng·h/mL | 1.57 h | 1660 ng·h/mL | 457 ng/mL | 0.71 nM | 0.64 nM | 2.34 nM | 0.5 nM | 0.8 nM |  | CCN(c1cc(N2Cc3ccc(N4CCOCC4)cc3C2)cc(C(=O)NCc2c(C)cc(C)[nH]c2=O)c1C)C1CCOCC1 [Compound 18, N-((4,6-dimethyl-2-oxo-1,2-dihydropyridin-3-yl)methyl)-3-(ethyl (tetrahydro-2H-pyran-4-yl)amino)-2-methyl-5-(5-morpholinoisoindolin-2-yl) benzamide] |  |  |  |  | 2.89 nM | 1.86 nM |  |  |  |
| 26.8% | 932 ng·h/mL | 1.72 h | 1250 ng·h/mL | 426 ng/mL |  |  | 8.15 nM |  | 0.9 nM |  | CCN(c1cc(N2Cc3cn(C)cc3C2)cc(C(=O)NCc2c(C)cc(C)[nH]c2=O)c1C)C1CCOCC1 [Compound 21, N-((4,6-dimethyl-2-oxo-1,2-dihydropyridin-3-yl)methyl)-3-(ethyl (tetrahydro-2H-pyran-4-yl)amino)-2-methyl-5-(5-methyl-3,5-dihydropyrrolo[3,4-c]pyrrole-2(1H)-yl)benzamide] |  |  |  | 90% | 9.38 nM | 7.16 nM |  |  |  |
|  |  |  |  |  |  | 0.5 nM | 2.7 nM | 0.3 nM | 0.91 nM |  | CCN(c1cc(-c2cc3c(cc2F)C(N2CCOCC2)CC3)c(F)c(C(=O)NCc2c(C)cc(C)[nH]c2=O)c1C)C1CCOCC1 (centres unmarked) [Compound 28] |  |  |  |  | 3.47 nM | 1.53 nM |  |  |  |
|  |  |  |  |  |  |  | 1.99 nM |  |  |  | CCN(c1cc(-c2ccc3c(c2)CCN3C2CCOCC2)cc(C(=O)NCc2c(C)cc(C)[nH]c2=O)c1C)C1CCOCC1 [Compound 29, N-((4,6-dimethyl-2-oxo-1,2-dihydropyridin-3-yl)methyl)-3-(ethyl (tetrahydro-2H-pyran-4-yl)amino)-2-methyl-5-(1-(1-tetrahydro-2H-pyran-4-yl)indolin-5-yl)benzamide] |  |  |  | 78% | 2.18 nM | 1.42 nM |  |  |  |
|  |  |  |  |  |  |  |  |  |  | 20.3 nM | CC[C@H](C)n1cc(C)c2c(C(=O)NCc3c(C)cc(C)[nH]c3=O)cc(-c3ccc(N4CCNCC4)nc3)cc21 [GSK126, reference compound] |  |  |  |  |  |  | 34.1 nM | 12.2 nM | 61% |

| SMILES | bioavailability [1] | AUC ([1]; intravenous dosing 4 mg/kg) | half-life ([1]; intravenous dosing 4 mg/kg) | AUC ([1]; oral dosing 20 mg/kg) | Cmax ([1]; oral dosing 20 mg/kg) | IC50 (Mutant EZH2 (Y641F)) | IC50 (Mutant EZH2 (A677G)) | IC50 (Karpas 422 cells; [6]) | IC50 (Mutant EZH2 (Y641N)) | IC50 (wild-type EZH2) | IC50 (Karpas 422 cells; [7]) | IC50 (WSU-DLCL2 cells; Homo sapiens, WSUDLCL2, […]) | IC50 (Pfeiffer cells; Homo sapiens, Pfeiffer, […]) | IC50 (Karpas 422 cells; Homo sapiens, KARPAS-422, […]) | tumor growth inhibition [2, 3] | IC50 (WSU-DLCL2 cells; [4]) | IC50 (Pfeiffer cells; [5]) | IC50 (WSU-DLCL2 cells; [7]) | IC50 (Pfeiffer cells; [7]) | tumor growth inhibition ([2]; 50 mg/kg abdominal, once a day for 21 days) |
| --- | --- | --- | --- | --- | --- | --- | --- | --- | --- | --- | --- | --- | --- | --- | --- | --- | --- | --- | --- | --- |
| CCN(c1cc(-c2ccc3c(c2)CCC3N2CCOCC2)c(Cl)c(C(=O)NCc2c(OC)cc(C)[nH]c2=O)c1C)C1CCOCC1 (centres unmarked) [Compound 12, 2-chloro-5-(ethyl(tetrahydro-2H-pyran-4-yl)amino)-N-((4-methoxy-6-methyl-2-carbonyl-1,2-dihydropyridin-3-yl)methyl)-6-methyl-3-(1-morpholino-2,3-dihydro-1H-inden-5-yl)benzamide] | 27.4% | 956 ng·h/mL | 1.42 h | 1310 ng·h/mL | 480 ng/mL |  |  |  |  |  |  | 2.36 nM | 1.69 nM | 1.84 nM | 85% |  |  |  |  |  |
